In brackets after ≈: the same amount, converted by molar mass.
Legend:
[1] = system: Trichophyton rubrum; test: In vitro volatile assay (Example 26); type: cell-based; settings: Trichophyton rubrum, 120 h, 5 days at 28 C, 100% control, read-out: MIC (mg/L) Trichophyton rubrum
Description: (§1) Volatile assay: 6-well (16.5 mL volume per well) microtiter plates are used in an in vitro inhibition assay for Compounds A and 31, and compared to other registered fungicides (5-fluorocytosine, Amphotericin B, aspofungin diacetate, Fluconazole and Itraconazole). A 7.5-mL volume of half strength PDA is added to each well. After drying, a mycelial plug (5 mm diameter) is aseptically obtained from actively growing cultures of Epidermophyton floccus, Trichophyton rubrum, or Trichophyton mentagrophytes and placed at the center of the plate with the mycelial side in contact with the agar. A Whatman #1 filter disk (Cat. No. 1001-325) is placed, in duplicate, on the underside of a polyethylene PCR plate sealing film. […] The headspace around the inoculum is then sealed inside the well by the film with the adhering disk containing the fungicide and incubated inverted for 5 days at 28° C.

[2] = system: Epidermophyton floccus; test: In vitro volatile assay (Example 26); type: cell-based; settings: Epidermophyton, 120 h, 5 days at 28 C, 100% control, read-out: MIC (mg/L) Epidermophyton floccus
Description: as §1

[3] = system: Trichophyton mentagrophytes; test: In vitro volatile assay (Example 26); type: cell-based; settings: Trichophyton mentagrophytes, 120 h, 5 days at 28 C, 100% control, read-out: MIC (mg/L) Trichophyton mentagrophytes
Description: as §1

[4] = system: Trichophyton rubrum; test: In vitro contact assay (Example 26); type: cell-based; settings: Trichophyton rubrum, 120 h, 5 days at 28 C, 100% control, read-out: MIC (mg/L) Trichophyton rubrum
Description: (§2) Half-strength Potato Dextrose Agar (PDA) is amended with a mixture of one of the test compounds in acetone or methanol to a final concentration of 50, 10, 2, 0.4 or 0.08 mg/L. A 3-mL volume of the amended media is added to each well of the microtiter plate. […] The plates are sealed with a clear film and incubated inverted for 5 days at 28° C.

[5] = system: Epidermophyton floccus; test: In vitro contact assay (Example 26); type: cell-based; settings: Epidermophyton, 120 h, 5 days at 28 C, 100% control, read-out: MIC (mg/L) Epidermophyton floccus
Description: as §2

[6] = system: Trichophyton mentagrophytes; test: In vitro contact assay (Example 26); type: cell-based; settings: Trichophyton mentagrophytes, 120 h, 5 days at 28 C, 100% control, read-out: MIC (mg/L) Trichophyton mentagrophytes
Description: as §2

[7] = system: Penicillium expansum; test: Blue mold on apple and pear, contact assay (Example 25); type: in vivo; settings: Contact (dip); rate not given; day 3 at 21 C after 5 days at 1 C
Description: (§3) A 250 mL solution of each concentration is used to dip two inoculated fruits, one minute per fruit, performed in triplicate per rate. The dipped fruits are then placed back into the clamshells and then into the SnapWare container and incubated at 1° C. for 5 days. […] Volatile application of Compound A results in excellent inhibition of browning and sporulation, whereas all other active ingredients result in no or little inhibition.

[8] = system: Penicillium expansum; test: Blue mold on apple and pear, volatile assay (Example 25); settings: 50 mg/L, day 3 at 21 C after 5 days at 1 C
Description: Two apples, pears or oranges are placed in a clamshell, and three fresh wounds are made near the equatorial region of each fruit. Each fruit wound is then inoculated with 20 μL of 1×10^6 spores per mL of Penicillium expansum or digitatum suspension, respectively. The inoculum is allowed to dry for two hours prior to treatment application as a volatile or contact.
Volatile Assay: Clamshells are then placed at the bottom of a 2.55-L SnapWare airtight container (Model #109842). […] The solutions are pipetted into Whatman filter disks mounted to the inside lid of the container. The chambers are then incubated at 1° C. for 5 days, removed to 21° C., and evaluated on day 3 by determining the diameter (mm) of rot development (browning) or sporulation.

[9] = system: Penicillium digitatum; test: Green mold on orange, volatile assay (Example 25); type: in vivo; settings: 50 mg/L, day 3 at 21 C after 5 days at 1 C
[10] = system: Penicillium digitatum; test: Green mold on orange, contact assay (Example 25); type: in vivo; settings: Contact (dip); rate not given; day 3 at 21 C after 5 days at 1 C
Description: as §3

[11] = system: Alternaria alternata; test: Volatile MIC assay (Example 9); type: cell-based; settings: 72 h, headspace concentration, 3 days at 23 C, read-out: MIC (mg/L) ALTEAL
Description: (§4) A 3-mL volume of full-strength Potato Dextrose Agar (PDA) is added to each well. […] Plates are inoculated immediately prior to volatile fungicide treatment. A Whatman #1 filter disk (Cat. No. 1001-0155) is placed, in duplicate, on the underside of a polyethylene PCR plate sealing film. […] The acetone is permitted to evaporate for 5 minutes. The headspace around the inoculum is then sealed inside the well by the film with the adhering disk containing the fungicide by inverting the plates over the treated disks and sealing to prevent any of the chemical from flaking from the disk and falling onto the inoculated agar.

[12] = system: Botrytis cinerea; test: Volatile MIC assay (Example 9); type: cell-based; settings: 72 h, headspace concentration, 3 days at 23 C, read-out: MIC (mg/L) BOTRCI
Description: as §4

[13] = system: Penicillium expansum; test: Volatile MIC assay (Example 9); type: cell-based; settings: 72 h, headspace concentration, 3 days at 23 C, read-out: MIC (mg/L) PENIEX
Description: as §4

[14] = system: Glomerella cingulata; test: Volatile MIC assay (Example 9); type: cell-based; settings: Colletotrichum gloeosporioides, 72 h, headspace concentration, 3 days at 23 C, read-out: MIC (mg/L) GLOMCI
Description: as §4

[15] = system: Monilinia fructicola; test: Volatile MIC assay (Example 9); type: cell-based; settings: 72 h, headspace concentration, 3 days at 23 C, read-out: MIC (mg/L) MONIFC
Description: as §4

In the case of `OC(Cn1cncn1)(Cn1cncn1)c1ccc(F)cc1F` [Fluconazole], the MIC [1] is reported as greater than 50 mg/L, the MIC [2] is reported as greater than 50 mg/L and the MIC [3] is reported as greater than 50 mg/L. It also gave an MIC [4] of 50 mg/L (≈ 163 µM), an MIC [5] of 10 mg/L (≈ 32.7 µM) and an MIC [6] greater than 50 mg/L.

`Cc1cc(C)nc(Nc2ccccc2)n1` [Pyrimethanil] was tested, and the “Apple Browning (mm)” value [7] was 8.1 mm, the “Apple Sporulation (mm)” value [7] was 2.4 mm and the “Pear Browning (mm)” value [7] was 8.9 mm. The “Pear Sporulation (mm)” value [7] was 5.2 mm, the “Apple Browning (mm)” value [8] was 11.3 mm and the “Apple Sporulation (mm)” value [8] was 2.6 mm. The “Pear Browning (mm)” value [8] was 14.0 mm, the “Pear Sporulation (mm)” value [8] was 6.5 mm and the “Orange Sporulation (mm)” value [9] was 22.3 mm. The “Orange Sporulation (mm)” value [10] was 0.0 mm.

For `COCCCOB1OCc2ccccc21` [Compound 7], the MIC [11] was 8.9 mg/L (≈ 43.2 µM), the MIC [12] was 2.2 mg/L (≈ 10.7 µM) and the MIC [13] was 17.9 mg/L (≈ 86.9 µM). It also gave an MIC [14] of 71.4 mg/L (≈ 347 µM) and an MIC [15] of 8.9 mg/L (≈ 43.2 µM).

Compound `CC(C)OB1OCc2ccccc21` [Compound 9] has an MIC [11] of 8.9 mg/L (≈ 50.6 µM), an MIC [12] of 2.2 mg/L (≈ 12.5 µM) and an MIC [13] of 8.9 mg/L (≈ 50.6 µM). For the same compound, the MIC [14] was 35.7 mg/L (≈ 203 µM) and the MIC [15] was 8.9 mg/L (≈ 50.6 µM).

Compound `OB1OCc2cc(Cl)ccc21` [Compound 201] has an MIC [11] of 16.1 mg/L (≈ 95.6 µM), an MIC [12] of 3.8 mg/L (≈ 22.6 µM) and an MIC [13] of 29.5 mg/L (≈ 175 µM). For the same compound, the MIC [14] was 9.3 mg/L (≈ 55.2 µM) and the MIC [15] was 8.5 mg/L (≈ 50.5 µM).

For `Nc1nc(=O)[nH]cc1F` [5-Fluorocytosine, 5-fluorocytosine], the MIC [1] was greater than 50 mg/L, the MIC [2] was greater than 50 mg/L and the MIC [3] was greater than 50 mg/L. It also gave an MIC [4] greater than 50 mg/L, an MIC [5] greater than 50 mg/L and an MIC [6] greater than 50 mg/L.

For `COCCOB1OCc2ccccc21` [Compound 8], the MIC [11] was 8.9 mg/L (≈ 46.3 µM), the MIC [12] was 2.2 mg/L (≈ 11.5 µM) and the MIC [13] was 35.7 mg/L (≈ 186 µM). It also gave an MIC [14] of 71.4 mg/L (≈ 372 µM) and an MIC [15] of 4.5 mg/L (≈ 23.4 µM).

From patent US12329158B2, “Large-scale methods of uniformly coating packaging surfaces with a volatile antimicrobial to preserve food freshness” (AGROFRESH INC., priority 2013, dated 2025)
